From patent publication US4460582A, “3-Carboxybenzyl cephems” (Beecham Group P.L.C., priority 1981, dated 1984)
Counter-ions that a name gives are not always drawn.

How the values were obtained:
Format in all cases: cell-based
Proteus mirabilis 977 = test: MIC in nutrient broth
Source text: (§1) The minimum inhibitory concentrations (MIC) of the
(§2) compound of Examples 2 and 4 found necessary to prevent
(§3) growth of various bacteria in nutrient broth were as […]

Klebsiella aerogenes A [1] = test: MIC in nutrient broth
Source text: as §1, §2, §3

Escherichia coli 0111 = test: MIC in nutrient broth
Source text: as §1, §2, §3

[2] = tested on: Serratia marcescens US 20; test: MIC in nutrient broth; conditions: US20
Source text: as §1, §2, §3

[3] = tested on: Staphylococcus aureus Russell; test: MIC in nutrient broth
Source text: as §1, §2, §3

Citrobacter freundii E 8 = test: MIC in nutrient broth; conditions: E8
Source text: as §1, §2, §3

Proteus vulgaris W 091 = test: MIC in nutrient broth; conditions: W091
Source text: as §1, §2, §3

[4] = tested on: Escherichia coli JT 39 (R^+); test: MIC in nutrient broth
Source text: as §1, §2, §3

Bacillus subtilis A = test: MIC in nutrient broth
Source text: as §1, §2, §3

Streptococcus faecalis I [5] = test: MIC in nutrient broth; conditions: Enterococcus faecalis
Source text: as §1, §2, §3

[6] = tested on: Streptococcus pneumoniae CN 33; test: MIC in nutrient broth; conditions: CN33
Source text: as §1, §2, §3

[7] = tested on: Staphylococcus aureus Oxford; test: MIC in nutrient broth
Source text: as §1, §2, §3

Enterobacter cloacae N 1 = test: MIC in nutrient broth; conditions: N1
Source text: as §1, §2, §3

[8] = tested on: Salmonella typhimurium CT 10; test: MIC in nutrient broth; conditions: Salmonella enterica
Source text: as §1, §2, §3

Shigella sonnei MB 11967 = test: MIC in nutrient broth; conditions: MB11967
Source text: as §1, §2, §3

Pseudomonas aeruginosa A = test: MIC in nutrient broth
Source text: as §1, §2, §3

Proteus morganii I 580 = test: MIC in nutrient broth; conditions: Morganella morganii, I580
Source text: as §1, §2, §3

Proteus rettgeri WM 16 = test: MIC in nutrient broth; conditions: Providencia rettgeri, WM16
Source text: as §1, §2, §3

[9] = tested on: Streptococcus pyogenes CN 10; test: MIC in nutrient broth; conditions: CN10
Source text: as §1, §2, §3

Escherichia coli JT4 = test: MIC on agar
Source text: (§4) The Minimum Inhibitory concentrations (MIC) of the compound
(§5) of Example 6 found necessary to prevent growth of various

Klebsiella aerogenes A [10] = test: MIC on agar
Source text: as §4, §5

Escherichia coli JT425 = test: MIC on agar
Source text: as §4, §5

Proteus rettgeri = test: MIC on agar; conditions: Providencia rettgeri
Source text: as §4, §5

[11] = tested on: Staphylococcus aureus Russell; test: MIC on agar
Source text: as §4, §5

[12] = tested on: Pseudomonas aeruginosa NCTC 10662; test: MIC on agar; conditions: NCTC10662
Source text: as §4, §5

[13] = tested on: Neisseria catarrhalis 1502; test: MIC on agar
Source text: as §4, §5

Enterobacter cloacae N1 = test: MIC on agar
Source text: as §4, §5

Streptococcus faecalis I [14] = test: MIC on agar; conditions: Enterococcus faecalis
Source text: as §4, §5

Serratia marcescens US32 = test: MIC on agar
Source text: as §4, §5

[15] = tested on: Staphylococcus aureus Oxford; test: MIC on agar
Source text: as §4, §5

[16] = tested on: Streptococcus pyogenes CN10; test: MIC on agar
Source text: as §4, §5

Proteus mirabilis C977 = test: MIC on agar
Source text: as §4, §5

Bacillus subtilis = test: MIC on agar
Source text: as §4, §5

Proteus morganii = test: MIC on agar; conditions: Morganella morganii
Source text: as §4, §5

[17] = tested on: Pseudomonas aeruginosa Dalgleish; test: MIC on agar
Source text: as §4, §5

CO/N=C(\C(=O)N[C@@H]1C(=O)N2C(C(=O)O)=C(Cc3ccc(C(=O)O)cc3)CS[C@H]12)c1csc(N)n1 [Example 2, (6R,7R)-3-(4-Carboxybenzyl)-7-[2,Z-methoxyimino-2-(2-aminothiazol-4-yl)-acetamido]ceph-3-em-4-carboxylic acid trifluoroacetic acid salt]
MIC (Proteus mirabilis 977): 0.8 µg/mL
MIC (Klebsiella aerogenes A [1]): 0.2 µg/mL
MIC (Escherichia coli 0111): 6.2 µg/mL
MIC [2]: 12.5 µg/mL
MIC [3]: 12.5 µg/mL
MIC (Citrobacter freundii E 8): 25 µg/mL
MIC (Proteus vulgaris W 091): 12.5 µg/mL
MIC [4]: 6.2 µg/mL
MIC (Bacillus subtilis A): 25 µg/mL
MIC (Streptococcus faecalis I [5]): > 100 µg/mL
MIC [6]: ≤ 0.1 µg/mL
MIC [7]: 12.5 µg/mL
MIC (Enterobacter cloacae N 1): 3.1 µg/mL
MIC [8]: 0.4 µg/mL
MIC (Shigella sonnei MB 11967): 0.4 µg/mL
MIC (Pseudomonas aeruginosa A): > 100 µg/mL
MIC (Proteus morganii I 580): 1.6 µg/mL
MIC (Proteus rettgeri WM 16): 12.5 µg/mL
MIC [9]: ≤ 0.1 µg/mL

CCO/N=C(\C(=O)N[C@@H]1C(=O)N2C(C(=O)O)=C(Cc3ccc(C(=O)O)cc3)CS[C@H]12)c1csc(N)n1 [Example 4, (6R,7R)-3-(4-Carboxybenzyl)-7-[2,Z-ethoxyimino-2-(2-aminothiazol-4-yl)-acetamido]-ceph-3-em-4-carboxylic acid trifluoroacetic acid salt]
MIC (Proteus mirabilis 977): 0.2 µg/mL
MIC (Klebsiella aerogenes A [1]): 0.1 µg/mL
MIC (Escherichia coli 0111): 3.1 µg/mL
MIC [2]: 3.1 µg/mL
MIC [3]: 6.2 µg/mL
MIC (Citrobacter freundii E 8): 100 µg/mL
MIC (Proteus vulgaris W 091): 3.1 µg/mL
MIC [4]: 1.6 µg/mL
MIC (Bacillus subtilis A): 12.5 µg/mL
MIC (Streptococcus faecalis I [5]): > 100 µg/mL
MIC [6]: 6.2 µg/mL
MIC [7]: 3.1 µg/mL
MIC (Enterobacter cloacae N 1): 50 µg/mL
MIC [8]: 0.8 µg/mL
MIC (Shigella sonnei MB 11967): 0.8 µg/mL
MIC (Pseudomonas aeruginosa A): > 100 µg/mL
MIC (Proteus morganii I 580): 100 µg/mL
MIC (Proteus rettgeri WM 16): 100 µg/mL

CC(C)(O/N=C(\C(=O)N[C@@H]1C(=O)N2C(C(=O)O)=C(Cc3ccc(C(=O)O)cc3)CS[C@H]12)c1csc(N)n1)C(=O)O [Example 6, (6R,7R)-3-(4-Carboxybenzyl)-7-[2,Z-(2-carboxyprop-2-oxyimino)-2-(2-aminothiazol-4-yl)-acetamido]-ceph-3-em-4-carboxylic acid trifluoroacetic acid salt]
MIC (Escherichia coli JT4): 2.5 µg/mL
MIC (Klebsiella aerogenes A [10]): 0.2 µg/mL
MIC (Escherichia coli JT425): 25 µg/mL
MIC (Proteus rettgeri): 0.2 µg/mL
MIC [11]: > 100 µg/mL
MIC [12]: 5 µg/mL
MIC [13]: < 0.02 µg/mL
MIC (Enterobacter cloacae N1): 1 µg/mL
MIC (Streptococcus faecalis I [14]): > 100 µg/mL
MIC (Serratia marcescens US32): 2.5 µg/mL
MIC [15]: 100 µg/mL
MIC [16]: 2.5 µg/mL
MIC (Proteus mirabilis C977): 0.05 µg/mL
MIC (Bacillus subtilis): > 100 µg/mL
MIC (Proteus morganii): 2.5 µg/mL
MIC [17]: 2.5 µg/mL
